# Reference: US20220153732A1, “PROTEIN SECRETION INHIBITORS” (KEZAR LIFE SCIENCES, priority 2019, published 2022)
# Columns and labels:
# Type in all cases: cell-based
# [1] = system: human multiple myeloma cell line U266B1; assay: U266 Cell Viability Assay; details: U-266, 48 hr, U266B1 cells, Celltiter-Glo, read-out: 48 hr U266 Viability Celltiter-Glo: Mean EC50
# Summary of the method: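 U266B1 myeloma cells treated with compound dilutions in DMSO/media for 48 h at 37 °C, 5% CO2. Viability read by CellTiter-Glo luminescence. Stereochemically undefined structures were tested as stereoisomer mixtures.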
# [2] = system: HER3-ss+4aa/Gaussia Luciferase; assay: Dox-Induced Her3-ss-Gluc Assay; details: 24 hr doxycycline induction, 293FRT/TO cells, Gaussia luciferase signal; read-out: 24 hr Dox Inducible Her3(ss + 4)Gluc 293FRT/TO: Mean IC50
# Summary of the method: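 Stable T-REx cell line carrying a doxycycline-regulated HER3-ss+4aa/Gaussia luciferase insert, plated the day before assay. Compound dilutions in DMSO/media with doxycycline added, then incubated at 37° C., 5% CO2. Stereoisomer mixtures tested where stereochemistry is not drawn.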
# [3] = system: human multiple myeloma cell line NCI-H929; assay: H929 Cell Viability Assay; details: 48 hr, NCI-H929 cells, Celltiter-Glo, read-out: 48 hr H929 Viability Celltiter-Glo: Mean EC50
# Protocol: Plates were incubated at 37° C., 5% CO2 for 48 hours. After 48 hours, Celltiter-Glo® (Promega) was added to each well and luciferase signal was quantified using Tecan Infinite M1000 Pro for cell viability determination.
# For chemical structures that include one or more stereoisomers, but are illustrated without indicating stereochemistry, the assay data refers to a mixture of stereoisomers.
# [4] = system: TNFα-FL/Gaussia Luciferase; assay: Dox Induced TNFα-FL-Gluc Assay; details: 24 hr doxycycline induction, 293FRT/TO cells, Gaussia luciferase signal; read-out: 24 hr Dox Inducible TNFaFLGluc 293FRT/TO: Mean IC50
# Summary of the method: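 A stable T-REx cell line carrying doxycycline-inducible TNFα-FL/Gaussia luciferase was plated the day before assay. Compound dilutions in DMSO/media containing doxycycline were then added and incubated at 37° C, 5% CO2.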
# [5] = system: IL-2-FL/Gaussia Luciferase; assay: Dox Induced IL2-FL-Gluc Assay; details: 24 hr doxycycline induction, 293FRT/TO cells, Gaussia luciferase signal; read-out: 24 hr Dox Inducible IL2FLGIuc 293FRT/TO: Mean IC50
# Summary of the method: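 Stable T-REx cell line expressing doxycycline-inducible IL-2-FL/Gaussia luciferase cDNA, plated the day before assay. Compound dilutions in DMSO/media containing doxycycline added and incubated at 37° C., 5% CO2. Unspecified stereochemistry means data refer to a stereoisomer mixture.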
# [6] = system: PD1-ss+10aa/Gaussia Luciferase; assay: Dox-Induced PD1-ss-Gluc Assay; details: 24 hr doxycycline induction, 293FRT/TO cells, Gaussia luciferase signal; read-out: 24 hr Dox Inducible PD1ssGluc 293FRT/TO: Mean IC50
# Summary of the method: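 Stable cell line carrying PD1-ss+10aa/Gaussia luciferase cDNA under T-REx (doxycycline-inducible) control, plated the day before assay. Compound dilutions in DMSO/media containing doxycycline added and incubated at 37° C, 5% CO2. Undefined stereocentres: data refer to stereoisomer mixtures.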
compound,measurement,setting,value
"CC(C)OCc1csc(NC(=O)c2cccn2Cc2ccncc2)n1 [Compound A59, N-(4-(isopropoxymethyl)thiazol-2-yl)-1-(pyridin-4-ylmethyl)-1H-pyrrole-2-carboxamide]",EC50,[1],> 25 µM
same,IC50,[2],11.9 µM
same,EC50,[3],> 25 µM
same,IC50,[4],16.6 µM
same,IC50,[5],3.62 µM
same,IC50,[6],1.51 µM
O=C(Nc1nc2ccsc2s1)c1cccn1Cc1ccncc1 [Compound A60],EC50,[1],> 25 µM
same,IC50,[2],3.75 µM
same,EC50,[3],> 25 µM
same,IC50,[4],> 25 µM
same,IC50,[5],2.69 µM
same,IC50,[6],1.57 µM
CC(C)OC(C)(C)c1csc(NC(=O)c2cccn2C(C)c2ccncc2)n1 (stereo not drawn) [Compound A61],EC50,[1],> 25 µM
same,IC50,[2],3.41 µM
same,EC50,[3],> 25 µM
same,IC50,[4],> 25 µM
same,IC50,[5],2.38 µM
same,IC50,[6],1.67 µM
CCCc1cnc(NC(=O)c2cccn2Cc2ccncc2)s1 [Compound A62],EC50,[1],> 25 µM
same,IC50,[2],4.3 µM
same,EC50,[3],> 25 µM
same,IC50,[4],> 25 µM
same,IC50,[5],5.07 µM
same,IC50,[6],1.69 µM
"Cc1csc(NC(=O)c2cccn2Cc2ccncc2)n1 [Compound A63, N-(4-methylthiazol-2-yl)-1-(pyridin-4-ylmethyl)-1H-pyrrole-2-carboxamide]",EC50,[1],> 25 µM
same,IC50,[2],10.6 µM
same,EC50,[3],> 25 µM
same,IC50,[4],> 25 µM
same,IC50,[5],> 25 µM
same,IC50,[6],1.72 µM
"CC(C)OC(C)(C)c1csc(NC(=O)c2cccn2CCCc2ccccc2)n1 [Compound A64, N-(4-(2-isopropoxypropan-2-yl)thiazol-2-yl)-1-(3-phenylpropyl)-1H-pyrrole-2-carboxamide]",EC50,[1],> 25 µM
same,IC50,[2],3.48 µM
same,EC50,[3],23.2 µM
same,IC50,[4],> 25 µM
same,IC50,[5],2.72 µM
same,IC50,[6],1.73 µM
CCc1cnc(NC(=O)c2cccn2Cc2ccncc2)s1 [Compound A65],EC50,[1],> 25 µM
same,IC50,[2],4.13 µM
same,EC50,[3],> 25 µM
same,IC50,[4],> 25 µM
same,IC50,[5],11.2 µM
same,IC50,[6],1.79 µM
"CCc1nc(NC(=O)c2cccn2Cc2ccncc2Cl)sc1C [Compound A66, 1-((3-chloropyridin-4-yl)methyl)-N-(4-ethyl-5-methylthiazol-2-yl)-1H-pyrrole-2-carboxamide]",EC50,[1],> 25 µM
same,IC50,[2],4.15 µM
same,EC50,[3],> 25 µM
same,IC50,[4],> 25 µM
same,IC50,[5],4.78 µM
same,IC50,[6],1.84 µM
"CC1(c2csc(NC(=O)c3cccn3Cc3ccncc3)n2)CC1 [Compound A67, N-(4-(1-methylcyclopropyl)thiazol-2-yl)-1-(pyridin-4-ylmethyl)-1H-pyrrole-2-carboxamide]",EC50,[1],> 25 µM
same,IC50,[2],3.24 µM
same,EC50,[3],> 25 µM
same,IC50,[4],> 25 µM
same,IC50,[5],2.08 µM
same,IC50,[6],1.88 µM
"CC(C)OC(C)(C)c1csc(NC(=O)c2cccn2CCCc2ccccc2Cl)n1 [Compound A68, 1-(3-(2-chlorophenyl)propyl)-N-(4-(2-isopropoxypropan-2-yl)thiazol-2-yl)-1H-pyrrole-2-carboxamide]",EC50,[1],> 25 µM
same,IC50,[2],2.73 µM
same,EC50,[3],> 25 µM
same,IC50,[4],> 25 µM
same,IC50,[5],2.76 µM
same,IC50,[6],2.07 µM
"CC(C)OC(C)(C)c1csc(NC(=O)c2cccn2Cc2ccnnc2)n1 [Compound A69, N-(4-(2-isopropoxypropan-2-yl)thiazol-2-yl)-1-(pyridazin-4-ylmethyl)-1H-pyrrole-2-carboxamide]",EC50,[1],> 25 µM
same,IC50,[2],6.22 µM
same,EC50,[3],> 25 µM
same,IC50,[4],> 25 µM
same,IC50,[5],4.17 µM
same,IC50,[6],2.08 µM
"COc1cc(Cn2cccc2C(=O)Nc2nc(C(C)(C)OC(C)C)cs2)cc(F)n1 [Compound A70, 1-((2-fluoro-6-methoxypyridin-4-yl)methyl)-N-(4-(2-isopropoxypropan-2-yl)thiazol-2-yl)-1H-pyrrole-2-carboxamide]",EC50,[1],> 25 µM
same,IC50,[2],9.39 µM
same,EC50,[3],> 25 µM
same,IC50,[4],> 25 µM
same,IC50,[5],5.67 µM
same,IC50,[6],2.23 µM
CC(C)OC(C)(C)c1csc(NC(=O)c2cccn2CC2CCOCC2)n1 [Compound A71],EC50,[1],> 25 µM
same,IC50,[2],5.44 µM
same,EC50,[3],> 25 µM
same,IC50,[4],> 25 µM
same,IC50,[5],3.54 µM
same,IC50,[6],2.28 µM
